Measurements taken from patent US12595279B2, “Modified nucleoside and synthetic methods thereof” (STEMIRNA THERAPEUTICS CO., LTD., priority 2019, dated 2026).

Key:
[1] = system: mice dendritic cells (D.2.4 cells); test: Expression of 100% cytidine-modified luciferase (FLuc) mRNA, LPP-wrapped, in dendritic cells (luciferase activity, RLU); type: cell-based; settings: FIG. 2; for difference of luciferase expression versus the control and m^4C (significance analysis on variance): 100% of cytidine replaced, control = cytidine without modification, P≤0.01, 24 h after transfection
Excerpt: Obtaining of the mRNA of the modified luciferase: DNA sequence of Luc may be in vitro transcribed to mRNA by means of a transcriptase under a conventional reagent condition. During the process of transcription, modified mRNA in varying proportions were obtained according to a ratio of the modified C (cytidine) and non-modified C, where the modified mRNA may contain U-modified mRNA in varying proportions. The sequence was in vitro synthesized into the following modified mRMA, thus forming new modified luciferase. In the above sequence (SEQ NO:1), cytidine was replaced by the modified C* in the present invention; and the following modified C* denotes the expression of the mRNA of 5 monocytidine-modified mRNA having a modification ratio of 100% (namely, all the C were replaced into the following 5 different C* modifications, m^4C (N4-methylcytidine), and m^4Cm (N^4, 2′-O-dimethylcytidine), specifically as shown in Table 1.
1.2.1: Preparation of a phospholipid mixed liquor: phospholipid:DOPE:mPEG2000-DSPE=49:49:2 were dissolved into an ethanol solution. DOPE was purchased from Avanti, mPEG2000-DSPE was purchased from cordenpharma, and PBS was purchased from Invitrogen.
1.2.2: Preparation of mRNA: 1 mL mRNA (mRNA having a concentration of 0.2 mg/mL and total mass of 0.2 mg as shown in Table 2) in each treatment group was respectively sucked up by a BD injector.
1.2.3: Preparation of phospholipid/mRNA: […] and 3 mL phospholipid solution (having a concentration of 12 mg/mL) were respectively sucked up by a BD injector and inserted into a micro-fluidic chip (the microfluidics herein should be a small-sized equipment capable of producing package for nanoparticles); the setup parameters: volume: 9.0 mL; and flow rate ratio: 3:1, total flow rate: 1 mL/min; temperature: 37.0° C., initial amount: 0.35 mL; ending amount: 0.10 mL, thus a phospholipid/mRNA solution was obtained, namely, mRNA particles wrapped by phospholipid and a phospholipid mixed solution were obtained.
Thereby, the wrapped mRNA carrier in each treatment group was obtained.
Experiment reagent: (1) water was added to a harvest buffer (25 ml): 1.25 ml 1 M Tris-HCl(pH7.5), 25 μl 1 M DTT, 250 μl 10% Triton X-100 to 25 ml for storage at 4° C. (2) water was added to an ATP buffer (10 ml): 1.25 ml 1 M Tris-HCl(pH7.5), 250 μl 1 M MgCl2, 24 mg ATP to 10 ml for storage at […] (3) luciferin buffer (36 ml): 10 mg luciferin, 36 ml 5 mM KH2PO4 (pH7.8) was performed for storage at 4° C. (4) PBS: […], 2.68 mMKCl, 10 mM Na2HPO4, 1.76 mM KH2PO4 was performed for storage at 4° C. […]
1.3.6: same volume of cell lysis buffer (100 μl) was successively taken and put to the microcentrifuge tubes in step 5, and mixed evenly immediately, and […] were read on a Luminometer. […]

dendritic cells [2] = test: Influence of different modification ratios of cytidine on luciferase mRNA expression; type: cell-based, mice; settings: for difference of expression at the best modification ratio versus other modification ratios (variance analysis): best ratio: invention 1 80%-100%, invention 4 20%, invention 2 40%, invention 3 5%; for trend of expression with the increase of the modification ratio: cytidine replaced at 0.5% to 100%; for trend of expression with the increase of the modification ratio / modification ratio with the maximum (optimal) expression quantity: FIGS. 4-7; for modification ratio with the maximum (optimal) expression quantity / modification ratio at which the expression quantity is relatively high: luciferase mRNA, part of the cytidine replaced; for modification ratio at which the expression quantity is relatively high: FIGS. 5-7
Procedure: mRNA of the luciferase in Example 1 was set as an example; a portion of cytidine was replaced with the compounds of the modified cytidine in the present invention having a ratio of 0.5%, 5%, 10%, 20%, 30%, 40%, 50%, 70%, 80% and 90%; and the specific replacement method was as follows: transcription was performed by a transcriptase of in vitro luciferase DNA with the supply of AUCG raw materials and according to a conventional method, where the synthesis method should be controlled and replaced, and then a portion of cytidine in mRNA was replaced according to the above ratio. The influence of the replacement in different ratios on the expression of mRNA was surveyed.

dendritic cells [3] = test: Influence of a 120A Poly(A) tail on the 3′ terminal on expression of modified luciferase mRNA in dendritic cells; type: cell-based, mice; settings: 120A tail; luciferase mRNA 100% modified; compared with FIG. 2 (FIG. 3)
Procedure: 120A was added on a 3′ terminal as a tail, so as to survey the influence of adding Poly(A) on the 3′ terminal on the translation effect, as well as on the expression of the luciferase 100% modified by the inventions 1-4 and control group. The influence on enzyme expression was measured according to the packaging method and cell infection method in Example 1. It can be obviously seen through the comparison of FIG. 2 that the expression was increased both to the modified or non-modified mRNA after adding a Ploy (A) structure on the 3′ terminal.

Row | SMILES | difference of luciferase expression versus the control and m^4C (significance analysis on variance) [1] | difference of expression at the best modification ratio versus other modification ratios (variance analysis) (dendritic cells [2]) | trend of expression with the increase of the modification ratio (dendritic cells [2]) | modification ratio with the maximum (optimal) expression quantity (dendritic cells [2]) | change of expression after adding a Poly(A) structure on the 3′ terminal (dendritic cells [3]) | difference of luciferase expression versus m^4Cm-modified mRNA ([1]; 100% modification, comparator m^4Cm (N^4,2′-O-dimethylcytidine)) | modification ratio at which the expression quantity is relatively high (dendritic cells [2])
1 | NC(N)=Nc1ccn(C2OC(COP(=O)([O-])OP(=O)([O-])OP(=O)([O-])[O-])C(O)C2O)c(=O)n1.[K+].[K+].[K+].[K+] (stereo not shown) [invention 1] | highly significant difference | significant difference | increased | 80%-100% | comparatively obvious |  | 
2 | Cc1cn(C2CC(O)C(COP(=O)([O-])OP(=O)([O-])OP(=O)([O-])[O-])O2)c(=O)nc1N=C(N)N.[K+].[K+].[K+].[K+] (stereo not shown) [invention 2] | highly significant difference | significant or highly significant differences | gradually increases | 40% |  | no significant difference | 20%-40%
3 | Cc1c(O)c(N=C(N)N)nc(=O)n1C1OC(COP(=O)([O-])OP(=O)([O-])OP(=O)([O-])[O-])C(O)C1O.[K+].[K+].[K+].[K+] (stereo not shown) [invention 4] | highly significant difference | significant or highly significant differences | gradually increases | 20% |  |  | 20%-40%
